In US10799521B2, “Use of icaritin in preparing medicament for preventing or treating hematocytopenia” (Lunan Pharmaceutical Group Corporation, priority 2013, dated 2020):
Marks after values point to notes of the source that are not given here.

Experiments:
[1] = tested on: normal mice; test: Clotting time in normal mice (capillary method); format: in vivo, Kunming mice; set-up: unit not given here; settings: 3 days, 1 h after last administration
Description: 100 Kunming mice were randomly divided into 5 groups, i.e. the blank control group (normal saline group), the icariin group (positive control group), the high-dose icaritin group, the medium-dose icaritin group, and the low-dose icaritin group. Each group was administered as follows.
Blank control group: administered with the same volume of normal saline by subcutaneous injection;
Icariin group: administered with 2 mg/kg of icariin by injection;
High-dose icaritin group: administered with the injection of icaritin of Example 1 by subcutaneous injection at a dosage of 10 mg/kg;
Medium-dose icaritin group: administered with the injection of icaritin of Example 1 by subcutaneous injection at a dosage of 5 mg/kg;
Low-dose icaritin group: administered with the injection of icaritin of Example 1 by subcutaneous injection at a dosage of 1 mg/kg.
Measurement of the clotting time: The normal saline group (blank control group), the icariin group (positive control group), and the icaritin administration groups (high-, medium-, and low-dose groups) were designed as follows: 50 mice were selected, weighed and randomly divided into 5 groups, with 10 mice in each group. The animals were administered consecutively for 3 days. At 1 h after the last administration, blood was sampled from the venous plexus by inserting a disposable 20 μl blood collection tube into the inner canthus of the mouse to collect 20 μl of blood. A small fragment of capillary was broken off every 15 s for checking the occurrence of clotting filaments. The time from the blood sampling to the occurrence of fibrous protein filaments (clotting time) was recorded, and the results were shown in Table 5.

[2] = tested on: tumor-bearing mice (mice ascites tumor s180 cells); test: Effect on chemotherapy-induced bone marrow suppression in tumor-bearing mice (routine blood test); format: in vivo, Kunming mice; settings: after 10 days once daily, docetaxel 75 mg/m^2/d iv, Tegafur/Gimeracil/Oteracil capsules 222.2 mg/m^2/d intragastric, icaritin 10 mg/kg/d iv
Description: Mice ascites tumor s180 cells were conventionally incubated in 1640 culture medium, at 37° C., 5% CO2, and passaged once every two days in average. The cells in the logarithmic growth phase were prepared into a single-cell suspension having a density of 3.0×10^7 cells/ml with normal saline, which was injected into the abdominal cavities of mice under sterile conditions. Seven days after inoculation, significant swelling of the abdominal cavities of mice can be seen. As this time, the mice were executed by cervical vertebra luxation, put into a beaker containing 75% ethanol and soaked for 2-3 minutes. The sterilized mice were placed into an ultraclean bench, and the abdomens were exposed. The ascites was drawn with a sterile syringe and put into a sterile reagent bottle for further use. The above ascites was counted with trypan blue, diluted with normal saline to adjust to 2.0×10^7 cells/ml, and inoculated at the right armpit of the mice with 0.2 ml for each mouse. The inoculated mice were randomly divided into 6 groups, with 10 animals in each group and half male and half female. Group 1, the model control group: the test animals were intraperitoneally injected with0.9% normal saline (same for the following experiments); Group 2, the docetaxel group: 75 mg/m^2/d of docetaxel; Group 3, the Tegafur, Gimeracil and Oteracil Potassium Capsules group: 222.2 mg/m^2/d of Tegafur, Gimeracil and Oteracil Potassium Capsules; Group 4, the icaritin group: 10 mg/kg/d of the icaritin microemulsion formulation; Group 5, the D+I group (docetaxel+icaritin group): 75 mg/m^2/d of docetaxel+[…] of icaritin; Group 6, the T +I group (Tegafur, Gimeracil and Oteracil Potassium Capsules+icaritin group): 222.2 mg/m^2/d of Tegafur, Gimeracil and Oteracil Potassium Capsules+10 mg/kg/d of icaritin. Docetaxel and icaritin were administered by tail intravenous injection with an administration volume of 10 ml/kg for each. Tegafur, Gimeracil and Oteracil Potassium Capsules was intragastrically administered with an administration volume of 40 ml/kg. Each group was administered once a day for totally 10 days. During the test, the animals were observed every day for their food and water uptake, survival conditions and behaviors, and measured for their body weights every day. After the test was ended, the mice were anaesthetized and anatomized. Blood was collected from abdominal aorta for routine blood test, and the total number of white blood cells, the total number of platelets and the total number of neutrophils were determined.

[3] = tested on: chronic ITP model rats; test: Platelet count in chronic ITP model rats (anti-rat platelet serum); format: in vivo, Wistar rats
Description: Establishment of chronic ITP model: Wistar rats were selected to establish the model by injecting rabbit anti-rat platelet serum (APS). […] 50 Rats in which the model was successfully established were selected, weighed, and randomly divided into 5 groups, i.e. the model control group, the icariin group (positive control group), and the icaritin administration groups (high-, medium- and low-dose groups), with 10 rats in each group. The groups were administered with the following therapeutic agents, respectively.
The model control group: administered by subcutaneous injection with the same volume of normal saline;
(§1) The icariin group: administered by subcutaneous injection with 2 mg/kg of icariin;
(§2) The high-dose icaritin group: administered by subcutaneous injection with 10 mg/kg of the icaritin injection of Example 11;
(§3) The medium-dose icaritin group: administered by subcutaneous injection with 5 mg/kg of the icaritin injection of Example 11;
(§4) The low-dose icaritin group: administered by subcutaneous injection with 1 mg/kg of the icaritin injection of Example 11.
At 1 h after the last administration, blood was sampled from the venous plexus by inserting a disposable 20 μl blood collection tube into the inner canthus of the […].

[4] = tested on: model of thrombocytopenia induced by cyclophosphamide in mice; test: Thrombocytopenia induced by cyclophosphamide in mice (platelets in peripheral blood); format: in vivo, Balb/C mice; settings: cyclophosphamide model mice, 3 weeks, x ± s
Description: 72 Balb/C mice were selected, weighed, and randomly divided into 6 groups, i.e. the normal group, the model control group, the icariin group (positive control group), and the icaritin administration groups (high-, medium-, and low-dose groups), with 12 mice in each group. […] One week before starting to establish the model, each group was administered with the following therapeutic agents:
The normal group: administered subcutaneously with the same volume of normal saline;
The model control group: administered subcutaneously with the same volume of normal saline;
as §1, §2, §3, §4
Each group was administered once a day and fed normally. After consecutive administration for 3 weeks, the mice were anesthetized, and blood was sampled to measure the number of platelets and determine the effect of icaritin on the number of platelets (PLT) in the peripheral blood.

[5] = low dose 1 mg/kg sc (injection of Example 11)
[6] = medium dose 5 mg/kg sc (injection of Example 11)

COc1ccc(-c2oc3c(CC=C(C)C)c(O)cc(O)c3c(=O)c2O)cc1 [Icaritin]
Clotting Time ([1]; high dose 10 mg/kg sc): 1.96 ± 0.16**^ΔΔ
Clotting Time ([1]; low dose 1 mg/kg sc): 3.84 ± 0.55
Clotting Time ([1]; medium dose 5 mg/kg sc): 3.04 ± 0.31**^Δ
Neutrophils [2]: 1.316 ± 0.15^#**^$$ 10^9/L
Platelets [2]: 687.4 ± 37.2^## 10^9/L
White blood cells [2]: 3.530 ± 0.31^##**^$$ 10^9/L
Platelet count ([3]; high dose 10 mg/kg sc (injection of Example 11)): 819.96 ± 61.8**^ΔΔ ×10^9
Platelet count [3, 5]: 680.84 ± 50.5 ×10^9
Platelet count [3, 6]: 720.4 ± 60.3**^Δ ×10^9
PLT [4, 5]: 633.5 ± 43.2 10^9/L
PLT [4, 6]: 725.9 ± 66.7 10^9/L
